Assay results published in paper PMC12720098, “Prolintane analogs as hybrid monoamine transporter ligands: Structural determinants and species differences” (The Journal of Biological Chemistry, 2025).
“Also recorded” adds a separate entry of the source. Where a name gives a salt, the structure may show the parent alone. Read-outs that look alike come from different tables or passages of the source.

Assays:
[1] = biological target: T1, hSERT (Homo sapiens, UniProt P31645); format: cell-based
T1 construct: expressed in transfected cells
T1 sequence (P31645 whole entry): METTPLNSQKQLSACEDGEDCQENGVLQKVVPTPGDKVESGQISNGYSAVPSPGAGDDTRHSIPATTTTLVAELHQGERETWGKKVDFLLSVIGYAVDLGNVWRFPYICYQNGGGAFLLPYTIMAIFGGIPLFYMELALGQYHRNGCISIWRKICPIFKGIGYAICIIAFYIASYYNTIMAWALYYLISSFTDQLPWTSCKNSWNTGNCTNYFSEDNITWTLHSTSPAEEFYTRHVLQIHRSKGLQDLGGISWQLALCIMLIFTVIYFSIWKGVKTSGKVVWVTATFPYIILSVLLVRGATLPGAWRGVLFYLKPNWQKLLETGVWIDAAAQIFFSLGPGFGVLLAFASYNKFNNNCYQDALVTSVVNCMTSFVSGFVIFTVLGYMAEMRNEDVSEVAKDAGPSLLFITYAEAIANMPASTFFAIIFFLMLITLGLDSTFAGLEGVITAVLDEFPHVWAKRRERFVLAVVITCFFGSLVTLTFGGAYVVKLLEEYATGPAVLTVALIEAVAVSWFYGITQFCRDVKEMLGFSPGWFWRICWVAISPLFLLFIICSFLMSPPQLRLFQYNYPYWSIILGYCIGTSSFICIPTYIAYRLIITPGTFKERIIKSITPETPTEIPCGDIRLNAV
Method: (§1) Batch release assays were performed as described previously ([44]). In brief, HEK293 cells stably expressing monoamine transporters were seeded similar to the procedure used for uptake inhibition assays. A day after seeding cells were pre-loaded with 50 μl/well 0.015 μM [^3H]MPP^+ (hDAT, hNET), or 0.08 μM [^3H]5-HT (hSERT) for 20 min at 37 °C. Then cells were washed four times for 3 to 4 min each and further incubated with KHB or KHB + monensin. After 10 min of incubation, two (screening) to four (full traces; hSERT) 2 min incubations were performed to establish a baseline release without substance. […] Each fraction was transferred to an empty well in the 96-well plate. For screening, a known inhibitor (hDAT, hNET: 50 μM GBR12909) and releaser (hDAT, hNET: 10 μM S-(+)-amphetamine) were used as controls. Ultima Gold XR scintillation cocktail was added to the remaining cells, and each well contained a release fraction. The counted radioactivity in the respective fraction was expressed as a percentage of total radioactivity at the start of the fraction.
(§2) Half-maximal inhibitory concentrations (IC50) were obtained from fitting a sigmoidal dose–response ( Y=Bottom+Top−Bottom/1+10^((LogIC50−X)·HillSlope) ) in GraphPad Prism 10.3.1 (GraphPad Software Inc.). Uptake inhibition data were evaluated by one-way ANOVA followed by Tukey's multiple comparisons test. Release data were analyzed using a two-way ANOVA (batch release) or a mixed-effects model with Geisser-Greenhouse correction (time-dependent traces) employing Šidák correction for comparing differences between compounds with or without the addition of monensin.

[2] = biological target: rSERT (Rattus norvegicus, UniProt P31652); format: cell-based; parameters: expressed in transfected cells; conditions: for Mean diff, rSERT efflux ± Mon (Šídák's multiple comparisons test): drug alone vs drug + monensin (Mon)
rSERT, sequence (P31652 whole entry, the tested form may be a part): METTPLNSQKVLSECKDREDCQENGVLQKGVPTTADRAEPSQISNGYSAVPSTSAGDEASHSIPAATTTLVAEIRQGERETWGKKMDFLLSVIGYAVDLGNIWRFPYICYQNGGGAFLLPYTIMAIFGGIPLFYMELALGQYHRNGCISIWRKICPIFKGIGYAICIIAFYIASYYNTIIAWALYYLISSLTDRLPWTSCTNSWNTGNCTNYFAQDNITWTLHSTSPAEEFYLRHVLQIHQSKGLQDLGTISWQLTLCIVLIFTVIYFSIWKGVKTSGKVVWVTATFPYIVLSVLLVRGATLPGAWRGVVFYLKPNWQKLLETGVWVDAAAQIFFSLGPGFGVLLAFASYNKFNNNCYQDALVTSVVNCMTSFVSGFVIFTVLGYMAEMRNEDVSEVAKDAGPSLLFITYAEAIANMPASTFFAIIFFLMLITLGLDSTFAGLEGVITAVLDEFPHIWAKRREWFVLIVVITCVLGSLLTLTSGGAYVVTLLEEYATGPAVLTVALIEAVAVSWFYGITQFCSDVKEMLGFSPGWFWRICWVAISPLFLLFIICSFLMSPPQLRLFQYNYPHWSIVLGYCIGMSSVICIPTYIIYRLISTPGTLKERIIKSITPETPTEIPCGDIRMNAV
Method: A day prior to the experiment, HEK293 cells stably expressing hSERT or rat SERT (rSERT) were seeded at a density of 100,000 cells per channel into 6 channel flow ibidi slides (Gräfelfing, Germany). On the day of the experiments, cells were preloaded with 0.1 μM [^3H]5-HT at 37 °C, 5% CO2 for 20 min. Subsequently, the slides were transferred to the superfusion apparatus ([59]). Cells were then washed with KHB for 15 min under a constant flow of 0.5 ml/min. Fractions were collected every 2 min in 8 ml vials containing 2 ml scintillation cocktail. Collection began with three baseline fractions using KHB, followed by four additional basal release fractions with KHB, either with or without 10 μM monensin. […] To assess residual radioactivity within the cells, they were lysed with 1% sodium dodecyl sulfate (SDS), and three final fractions were obtained. The measured tritiated substrate in each fraction was expressed as a percentage of the initial tritiated substrate present at the start of that fraction.
Uptake inhibition data were evaluated by one-way ANOVA followed by Tukey's multiple comparisons test. Release data were analyzed using a two-way ANOVA (batch release) or a mixed-effects model with Geisser-Greenhouse correction (time-dependent traces) employing Šidák correction for comparing differences between compounds with or without the addition of monensin.

[3] = biological target: T2, hNET (Homo sapiens, UniProt P23975); assay: Batch release assay ([3H]MPP+) in transfected HEK293 cells; format: cell-based; conditions: % efflux of total uptake, compounds approximately at IC50 concentration
T2 construct: expressed in transfected cells
T2 sequence (P23975 whole entry): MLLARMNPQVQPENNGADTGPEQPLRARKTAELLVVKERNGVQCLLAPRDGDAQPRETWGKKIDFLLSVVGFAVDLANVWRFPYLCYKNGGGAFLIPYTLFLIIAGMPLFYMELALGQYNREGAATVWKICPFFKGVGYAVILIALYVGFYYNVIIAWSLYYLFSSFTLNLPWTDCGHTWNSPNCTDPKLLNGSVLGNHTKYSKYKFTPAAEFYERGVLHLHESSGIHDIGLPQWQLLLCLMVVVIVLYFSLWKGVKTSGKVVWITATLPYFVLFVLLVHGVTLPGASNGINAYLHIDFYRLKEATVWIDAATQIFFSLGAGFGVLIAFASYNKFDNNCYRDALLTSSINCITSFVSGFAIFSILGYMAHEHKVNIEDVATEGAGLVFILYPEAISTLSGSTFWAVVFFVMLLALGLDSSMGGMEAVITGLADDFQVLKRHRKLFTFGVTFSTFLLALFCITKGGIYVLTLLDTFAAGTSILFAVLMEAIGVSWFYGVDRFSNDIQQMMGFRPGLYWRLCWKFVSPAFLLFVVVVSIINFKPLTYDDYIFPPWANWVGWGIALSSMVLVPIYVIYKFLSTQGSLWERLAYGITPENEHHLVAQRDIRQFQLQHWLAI
Method: as §1, §2

[4] = biological target: T3, hDAT (Homo sapiens, UniProt Q01959); assay: as above; format: cell-based; conditions: % efflux of total uptake, compounds approximately at IC50 concentration
T3 construct: expressed in transfected cells
T3 sequence (Q01959 whole entry): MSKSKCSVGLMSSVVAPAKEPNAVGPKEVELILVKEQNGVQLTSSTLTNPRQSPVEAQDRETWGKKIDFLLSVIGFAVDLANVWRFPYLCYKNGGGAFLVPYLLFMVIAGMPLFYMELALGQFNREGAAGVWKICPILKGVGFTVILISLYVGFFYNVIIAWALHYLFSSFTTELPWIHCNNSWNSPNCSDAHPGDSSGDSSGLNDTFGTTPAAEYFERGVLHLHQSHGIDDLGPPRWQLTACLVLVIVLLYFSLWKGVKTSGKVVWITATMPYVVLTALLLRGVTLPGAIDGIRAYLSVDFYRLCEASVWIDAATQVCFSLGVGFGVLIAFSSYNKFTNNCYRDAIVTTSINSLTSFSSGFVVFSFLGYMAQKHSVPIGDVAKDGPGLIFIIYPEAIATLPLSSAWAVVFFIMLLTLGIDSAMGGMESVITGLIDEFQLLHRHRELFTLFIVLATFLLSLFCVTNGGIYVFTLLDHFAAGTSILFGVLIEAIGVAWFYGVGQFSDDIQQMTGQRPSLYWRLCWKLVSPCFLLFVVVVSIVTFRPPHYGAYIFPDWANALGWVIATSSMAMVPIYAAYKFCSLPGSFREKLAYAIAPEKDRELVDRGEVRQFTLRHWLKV
Method: as §1, §2

[5] = system: native HEK293 cells; assay: Whole-cell patch-clamp control in native HEK293 cells without transfection; format: cell-based, human; conditions: prolintane 30 µM, 5-HT 10 µM (Fig. S3)
Method: One day prior to recording, either native HEK293 cells or HEK293 cells stably expressing monoamine transporters were seeded at low density onto PDL-coated 35 mm dishes. Patch-clamp experiments were conducted at a holding potential of −60 mV, with substrate-induced currents recorded at room temperature (20–24 °C) using an […] amplifier and pClamp 11.2 software (MDS Analytical Technologies). During recordings, cells were continuously superfused via a DAD-12 perfusion system and an 8-tube manifold (ALA Scientific Instruments), delivering an external solution composed of 140 mM NaCl, 2.5 mM CaCl2, 3 mM KCl, 2 mM MgCl2, 20 mM glucose, and 10 mM HEPES, with pH adjusted to 7.3 using NaOH. The intracellular pipette solution, designed to mimic physiological ionic conditions, contained 133 mM potassium gluconate, 5.9 mM NaCl, 1 mM CaCl2, 0.7 mM MgCl2, 10 mM HEPES, and 10 mM EGTA, with pH set to 7.2 using KOH. Currents were filtered at 1 kHz and digitized at 10 kHz via a Digidata 1550 digitizer (MDS Analytical Technologies), followed by analysis in Clampfit 10.2 (Molecular Devices). Substance-induced currents were normalized to the current elicited by a saturating concentration of 5-HT (10 μM) of the same cell. Holding currents were subtracted, and a 50 Hz digital Gaussian low-pass filter was applied to the traces for further analysis.

## CC(N)Cc1ccc(Cl)cc1 (stereo not shown) [pCA, para-chloroamphetamine]
[1]
  hSERT-mediated efflux, predicted (LS) mean diff, No mon - Mon: -18.87
[2]; Row 1 (time fraction)
  Mean diff, rSERT efflux ± Mon (Šídák's multiple comparisons test): 0.1306
[2]; Row 2 (time fraction)
  Mean diff, rSERT efflux ± Mon (Šídák's multiple comparisons test): 0.1761
[2]; Row 3 (time fraction)
  Mean diff, rSERT efflux ± Mon (Šídák's multiple comparisons test): 0.2854
[2]; Row 4 (time fraction)
  Mean diff, rSERT efflux ± Mon (Šídák's multiple comparisons test): 0.1377
[2]; Row 5 (time fraction)
  Mean diff, rSERT efflux ± Mon (Šídák's multiple comparisons test): -0.4218
[2]; Row 6 (time fraction)
  Mean diff, rSERT efflux ± Mon (Šídák's multiple comparisons test): -0.8916
[2]; Row 7 (time fraction)
  Mean diff, rSERT efflux ± Mon (Šídák's multiple comparisons test): -1.153
[2]; Row 8 (time fraction)
  Mean diff, rSERT efflux ± Mon (Šídák's multiple comparisons test): -7.649
[2]; Row 9 (time fraction)
  Mean diff, rSERT efflux ± Mon (Šídák's multiple comparisons test): -4.816
[2]; Row 10 (time fraction)
  Mean diff, rSERT efflux ± Mon (Šídák's multiple comparisons test): -3.007
[2]; Row 11 (time fraction)
  Mean diff, rSERT efflux ± Mon (Šídák's multiple comparisons test): -2.599
[2]; Row 12 (time fraction)
  Mean diff, rSERT efflux ± Mon (Šídák's multiple comparisons test): -2.043
[2]; superfusion, HEK293 cells
  magnitude of [3H]5-HT release in cells expressing rSERT compared to hSERT: significantly lower magnitude

## C[C@H](N)Cc1ccccc1 [S-(+)-amphetamine, dextroamphetamine hemi sulfate salt, reference compound]
[3]
  hNET-mediated efflux, predicted (LS) mean diff, No mon - Mon: -5.397
[4]
  hDAT-mediated efflux, predicted (LS) mean diff, No mon - Mon: -1.735

## NCCc1c[nH]c2ccc(O)cc12 [5-HT, serotonin]
[5]
  current in native HEK293 cells without transfection: no current could be recorded; also recorded: do not induce currents

## Fc1ccc(C(OCCN2CCN(CCCc3ccccc3)CC2)c2ccc(F)cc2)cc1 [GBR12909, vanoxerine, reference compound]
[3]
  hNET-mediated efflux, predicted (LS) mean diff, No mon - Mon: -0.7072
[4]
  hDAT-mediated efflux, predicted (LS) mean diff, No mon - Mon: -0.7725
